In patent US20230212152A1, “INHIBITORS OF CYSTEINE PROTEASES AND METHODS OF USE THEREOF” (priority 2020, published 2023) one finds EC50 and IC50 data, which are given here for 34 molecules.

Like-named read-outs stand apart in the source and are kept apart here.

Assay [1] concerns the target T1, 229E Mpro (Human coronavirus 229E, UniProt P0C6X1).
T1 construct: 229E Mpro
Briefly: 229E Mpro assay (Table 3). In kind it is biochemical, HCoV 229E.
Method: Compounds are assayed using standard methods to assess compound activity and IC50. […] The assay buffer contains 20 mM of Tris-HCl (pH 7.3), 100 mM of NaCl, 1 mM of EDTA, 5 mM of TCEP and 0.1% BSA.

The target in assay [2] is SARS-CoV2 Mpro (Severe acute respiratory syndrome coronavirus 2, UniProt P0DTD1). Kind of assay: SARS-CoV2 Mpro enzymatic assay. The class given is biochemical. To be noted: 25 nM Mpro, 25 μM substrate.

T1 sequence (P0C6X1 2966-3267): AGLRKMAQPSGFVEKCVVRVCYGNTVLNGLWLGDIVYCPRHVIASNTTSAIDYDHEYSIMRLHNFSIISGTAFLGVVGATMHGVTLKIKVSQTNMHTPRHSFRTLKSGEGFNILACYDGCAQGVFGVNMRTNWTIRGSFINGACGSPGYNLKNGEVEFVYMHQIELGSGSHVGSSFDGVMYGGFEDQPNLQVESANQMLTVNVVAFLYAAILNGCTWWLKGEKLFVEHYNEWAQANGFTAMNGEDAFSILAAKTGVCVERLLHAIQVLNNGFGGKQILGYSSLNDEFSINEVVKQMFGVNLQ

As usually defined, the EC50 is the midpoint of the concentration-response curve. `COc1cccc2[nH]c(C(=O)N[C@@H](CC3CC3)C(=O)N[C@H](C#N)C[C@@H]3CCCNC3=O)cc12` (single isomer, unassigned) [271A (Isomer 1)]: the EC50 in assay [1] (read-out: 229E Mpro EC50) was over 30 µM.
In the case of `COc1cccc2[nH]c(C(=O)N3CC4(CCC4)CC3C(=O)N[C@H](C#N)C[C@@H]3CCNC3=O)cc12` (single isomer, unassigned) [399A (Isomer 2)], the EC50 in assay [1] (read-out: 229E Mpro EC50) lay in the range of 10 to 30 µM.
The same measure, in the same setting: under `Cc1ccn([C@H](CC2CC2)C(=O)N[C@H](C#N)C[C@@H]2CCNC2=O)c(=O)c1NCC(F)(F)F` (single isomer, unassigned) [451 (Isomer 1)] stands over 30 µM.
`Cc1ccn(C(CC2CC2)C(=O)N[C@H](C#N)C[C@@H]2CCNC2=O)c(=O)c1NCC(F)(F)F` (single isomer, unassigned) [451 (Isomer 2)]: in assay [1] (229E Mpro EC50), the EC50 lay in the range of 10 to 30 µM.
The molecule `N#CC(CC1CCNC1=O)NC(=O)C1CCc2ccc(NCC(=O)Oc3ccccc3)c(=O)n21` (single isomer, unassigned) [483 (Isomer 2)] came in with an EC50 in assay [1] (229E Mpro EC50) of over 30 µM.
The same measure, in the same setting: the result for `COc1cccc2[nH]c(C(=O)N[C@@H](CC3CC3)C(=O)N[C@H](C#N)C[C@@H]3CCCNC3=O)cc12` (single isomer, unassigned) [491A (Isomer 1)] reads over 30 µM.
`COc1cccc2[nH]c(C(=O)N3C[C@H]4CC[C@H]4[C@@H]3C(=O)N[C@H](C#N)C[C@@H]3CCNC3=O)cc12` (single isomer, unassigned) [547 (Isomer 2)]: the half-maximal effective concentration (EC50) in assay [1] (read-out: 229E Mpro EC50) was under 2 µM.
Same read-out and setting: under `Cc1ccn([C@H](CC2CC2)C(=O)N[C@H](C#N)C[C@@H]2CCNC2=O)c(=O)c1NC(=O)OC(C)(C)C` (single isomer, unassigned) [591 (Isomer 1)] stands over 30 µM.
The same measure, in the same setting: the result for `COc1cccc2[nH]c(C(=O)N3CC4(CCCCC4)CC3C(=O)N[C@H](C#N)C[C@@H]3CCCNC3=O)cc12` (single isomer, unassigned) [603a (Isomer 2)] reads over 30 µM.
As usually defined, the IC50 is the concentration that gives 50% inhibition. A low value points to higher potency. `COc1cc(Cl)c2[nH]c(C(=O)N3CC4(CCCCC4)CC3C(=O)N[C@H](C#N)C[C@@H]3CCNC3=O)cc2c1` (single isomer, unassigned) [896 (Isomer 1)]: in assay [1] (read-out: 229E Mpro EC50), the EC50 is under 2 µM. Moreover, the IC50 in assay [2] is under 2 µM.
In the case of `COc1cc(Cl)c2[nH]c(C(=O)N3CC4(CCCCC4)CC3C(=O)N[C@H](C#N)C[C@@H]3CCNC3=O)cc2c1` (single isomer, unassigned) [896 (Isomer 2)], in assay [1] (read-out: 229E Mpro EC50), the EC50 was over 30 µM. The molecule further gave an IC50 in assay [2] of over 30 µM.
For `CC1(C)CC(C[C@@H](C#N)NC(=O)[C@H](CC2CC2)NC(=O)c2cc3cccc(Cl)c3[nH]2)C(=O)N1` (single isomer, unassigned) [1053 (Isomer 2)], in assay [1] (read-out: 229E Mpro EC50), the EC50 lay within 10 to 30 µM.
In assay [1] (229E Mpro EC50), `CC(C)(C)[C@H](NC(=O)C(F)(F)F)C(=O)N1CC2(CCC2)CC1C(=O)N[C@H](C#N)C[C@@H]1CC2(CC2)NC1=O` (single isomer, unassigned) [3039a (Isomer 1)] gave an EC50 of 2 to 10 µM. For the same molecule, the IC50 in assay [2] is under 2 µM.
The like results for `CC1(C)C[C@@H](C[C@@H](C#N)NC(=O)C2CC3(CCC3)CN2C(=O)[C@@H](NC(=O)C(F)(F)F)C(C)(C)C)C(=O)N1` (single isomer, unassigned) [3071a (Isomer 1)] were, in that order, 2 to 10 µM and under 2 µM.
The matching figures for `CC1(C)C[C@@H](C[C@@H](C#N)NC(=O)C2CC3(CCC3)CN2C(=O)[C@@H](NC(=O)C(F)(F)F)C(C)(C)C)C(=O)N1` (single isomer, unassigned) [3071a (Isomer 2)]: over 30 µM and over 30 µM.
The like results for `CC1(C)C[C@@H](C[C@@H](C#N)NC(=O)[C@@H]2[C@@H]3[C@H](CN2C(=O)[C@@H](NC(=O)C(F)(F)F)C(C)(C)C)C3(C)C)C(=O)N1` (single isomer, unassigned) [3075 (Isomer 1)] were, in that order, over 30 µM and under 2 µM.
As for `CC1(C)C[C@@H](C[C@@H](C#N)NC(=O)[C@@H]2[C@@H]3[C@H](CN2C(=O)[C@@H](NC(=O)C(F)(F)F)C(C)(C)C)C3(C)C)C(=O)N1` (single isomer, unassigned) [3075 (Isomer 2)], the EC50 in assay [1] (229E Mpro EC50) is 10 to 30 µM. In assay [2], this molecule gave an IC50 of under 2 µM.
For the molecule `COc1cccc2[nH]c(C(=O)N[C@H](CC3CC3)C(=O)N[C@H](C#N)C[C@@H]3CCCNC3=O)cc12` (single isomer, unassigned; isomer 2) [491A (Isomer 2)], the EC50 in assay [1] (read-out: 229E Mpro EC50) was under 2 µM.
The same measure, in the same setting: under `COc1cccc2[nH]c(C(=O)N3C[C@H](C4CCCCC4)C[C@H]3C(=O)N[C@H](C#N)C[C@@H]3CCNC3=O)cc12` [Compound 167, (2S,4S)-N-((S)-1-cyano-2-((S)-2-oxopyrrolidin-3-yl)ethyl)-4-cyclohexyl-1-(4-methoxy-1H-indole-2-carbonyl)pyrrolidine-2-carboxamide] stands 2 to 10 µM; under `N#C[C@H](C[C@@H]1CCNC1=O)NC(=O)[C@@H]1CS[C@H]2CC[C@H](NCC(F)(F)F)C(=O)N21` [Compound 455, (3R,6S,8aS)-N-[(1S)-1-cyano-2-[(3S)-2-oxopyrrolidin-3-yl]ethyl]-5-oxo-6-(2,2,2-trifluoroethylamino)-2,3,6,7,8,8a-hexahydrothiazolo[3,2-a]pyridine-3-carboxamide], over 30 µM.
The same measure, in the same setting: under `N#C[C@H](C[C@@H]1CCNC1=O)NC(=O)[C@@H]1CCc2ccc(NCC(=O)O)c(=O)n21` [Compound 501, 2-[[(3S)-3-[[(1S)-1-cyano-2-[(3S)-2-oxopyrrolidin-3-yl]ethyl]carbamoyl]-5-oxo-2,3-dihydro-1H-indolizin-6-yl]amino]acetic acid] stands over 30 µM.
In assay [1] (229E Mpro EC50), `CC(C)(C)C[C@H](NC(=O)[C@@H](NC(=O)C(F)(F)F)C(C)(C)C)C(=O)N[C@H](C#N)C[C@@H]1CC2(CC2)NC1=O` [Compound 3037] registered an EC50 of under 2 µM. The molecule also returned an IC50 in assay [2] of under 2 µM.
As for `CC(C)(C)[C@H](NC(=O)C(F)(F)F)C(=O)N1CC2(CCC2)CC1C(=O)N[C@H](C#N)C[C@@H]1CC2(CC2)NC1=O` (stereo partly drawn) [Compound 3039b], the EC50 in assay [1] (229E Mpro EC50) is under 2 µM. The molecule also had an IC50 in assay [2] of under 2 µM.
Molecule `CC(C)(C)[C@H](NC(=O)C(F)(F)F)C(=O)N1CC2(CCCCC2)C[C@H]1C(=O)N[C@H](C#N)C[C@@H]1CC2(CC2)NC1=O` [Compound 3041] showed an EC50 in assay [1] (229E Mpro EC50) of under 2 µM. In assay [2], this molecule yielded an IC50 of under 2 µM.
As for `CC(C)(C)[C@H](NC(=O)C(F)(F)F)C(=O)N1C[C@H]2[C@@H]([C@H]1C(=O)N[C@H](C#N)C[C@@H]1CC3(CC3)NC1=O)C2(C)C` [Compound 3043], in assay [1] (229E Mpro EC50), the EC50 is under 2 µM. The molecule further had an IC50 in assay [2] of under 2 µM.
In turn, `CC(C)(C)[C@H](NC(=O)C(F)(F)F)C(=O)N[C@@H](CC1CC1(F)F)C(=O)N[C@H](C#N)C[C@@H]1CC2(CC2)NC1=O` (stereo partly drawn) [Compound 3045] registered an EC50 in assay [1] (229E Mpro EC50) of under 2 µM. The molecule also showed an IC50 in assay [2] of under 2 µM.
In turn, `CC1(C)C[C@@H](C[C@@H](C#N)NC(=O)[C@H](CC2CC2)NC(=O)[C@@H](NC(=O)C(F)(F)F)C(C)(C)C)C(=O)N1` [Compound 3065, (S)-N-((S)-1-(((S)-1-cyano-2-((R)-5,5-dimethyl-2-oxopyrrolidin-3-yl)ethyl)amino)-3-cyclopropyl-1-oxopropan-2-yl)-3,3-dimethyl-2-(2,2,2-trifluoroacetamido)butanamide] had an EC50 in assay [1] (229E Mpro EC50) of over 30 µM. The IC50 in assay [2] is under 2 µM.
The matching figures for `CC(C)(C)C[C@H](NC(=O)[C@@H](NC(=O)C(F)(F)F)C(C)(C)C)C(=O)N[C@H](C#N)C[C@@H]1CC(C)(C)NC1=O` [Compound 3069, (S)-N-((S)-1-cyano-2-((R)-5,5-dimethyl-2-oxopyrrolidin-3-yl)ethyl)-2-((S)-3,3-dimethyl-2-(2,2,2-trifluoroacetamido)butanamido)-4,4-dimethylpentanamide]: over 30 µM and under 2 µM.
The like results for `CC1(C)C[C@@H](C[C@@H](C#N)NC(=O)[C@@H]2CC3(CCCCC3)CN2C(=O)[C@@H](NC(=O)C(F)(F)F)C(C)(C)C)C(=O)N1` [Compound 3073, (3S)-N-[(1S)-1-cyano-2-[(3R)-5,5-dimethyl-2-oxo-pyrrolidin-3-yl]ethyl]-2-[(2S)-3,3-dimethyl-2-[(2,2,2-trifluoroacetyl)amino]butanoyl]-2-azaspiro[4.5]decane-3-carboxamide] were, in that order, 2 to 10 µM and under 2 µM.
Take `CC1(C)C[C@@H](C[C@@H](C#N)NC(=O)[C@@H]2[C@@H]3[C@H](CN2C(=O)[C@@H](NC(=O)C(F)(F)F)C(C)(C)C)C3(C)C)C(=O)N1` [Compound 3075, (1R,2S,5S)-N-((S)-1-cyano-2-((R)-5,5-dimethyl-2-oxopyrrolidin-3-yl)ethyl)-3-((S)-3,3-dimethyl-2-(2,2,2-trifluoroacetamido)butanoyl)-6,6-dimethyl-3-azabicyclo[3.1.0]hexane-2-carboxamide]: the EC50 in assay [1] (229E Mpro EC50) was 10 to 30 µM. For the same molecule, the IC50 in assay [2] was under 2 µM.
As for `CC(C)(C)C[C@H](NC(=O)[C@@H](NC(=O)C(F)(F)F)C(C)(C)C)C(=O)N[C@H](C#N)C[C@@H]1CCCNC1=O` [Compound 3129, (S)-N-((S)-1-cyano-2-((S)-2-oxopiperidin-3-yl)ethyl)-2-((S)-3,3-dimethyl-2-(2,2,2-trifluoroacetamido)butanamido)-4,4-dimethylpentanamide], in assay [1] (229E Mpro EC50), the EC50 was under 2 µM. The IC50 in assay [2] was under 2 µM.
Consider `CN(C(=O)[C@@H](NC(=O)C(F)(F)F)C(C)(C)C)[C@@H](CC1CC1)C(=O)N[C@H](C#N)C[C@@H]1CCCNC1=O` [Compound 3131], for which the EC50 in assay [1] (229E Mpro EC50) fell in the range of 10 to 30 µM. For the same molecule, in assay [2], the IC50 was under 2 µM.
The matching figures for `CC(C)(C)[C@H](NC(=O)C(F)(F)F)C(=O)N1C[C@H]2[C@@H]([C@H]1C(=O)N[C@H](C#N)C[C@@H]1CCCNC1=O)C2(C)C` [Compound 3133, (1R,2S,5S)-N-[(1S)-1-cyano-2-[(3S)-2-oxo-3-piperidyl]ethyl]-3-[(2S)-3,3-dimethyl-2-[(2,2,2-trifluoroacetyl)amino]butanoyl]-6,6-dimethyl-3-azabicyclo[3.1.0]hexane-2-carboxamide]: under 2 µM and under 2 µM.
On to `CC(C)(C)[C@H](NC(=O)C(F)(F)F)C(=O)N1C[Si](C)(C)C[C@H]1C(=O)N[C@H](C#N)C[C@@H]1CC2(CC2)NC1=O` [Compound 3135], for which, in assay [1] (read-out: 229E Mpro EC50), the EC50 is under 2 µM. This molecule yielded an IC50 in assay [2] of under 2 µM.
